Laboratory results: US9562035B2, “Benzamide derivative useful as FASN inhibitors for the treatment of cancer” (Janssen Pharmaceutica NV, priority 2013, dated 2017)

Tests used:
[1] = biological target: T1, hFASN enzyme (full length) (Homo sapiens, UniProt P49327); experiment: Fatty Acid Synthase (FASN) Inhibition Scintillation Proximity Assay; type: biochemical; conditions: for IC50: mean where tested more than once, ~ = standard error of pIC50 larger than 0.5; for inhibition at 10 µM: read-out: FASN % Effect @1E−05M
T1 construct: 10 μL hFASN enzyme (full length, 300 ng, purified in house); made in house
T1 sequence (P49327 whole entry): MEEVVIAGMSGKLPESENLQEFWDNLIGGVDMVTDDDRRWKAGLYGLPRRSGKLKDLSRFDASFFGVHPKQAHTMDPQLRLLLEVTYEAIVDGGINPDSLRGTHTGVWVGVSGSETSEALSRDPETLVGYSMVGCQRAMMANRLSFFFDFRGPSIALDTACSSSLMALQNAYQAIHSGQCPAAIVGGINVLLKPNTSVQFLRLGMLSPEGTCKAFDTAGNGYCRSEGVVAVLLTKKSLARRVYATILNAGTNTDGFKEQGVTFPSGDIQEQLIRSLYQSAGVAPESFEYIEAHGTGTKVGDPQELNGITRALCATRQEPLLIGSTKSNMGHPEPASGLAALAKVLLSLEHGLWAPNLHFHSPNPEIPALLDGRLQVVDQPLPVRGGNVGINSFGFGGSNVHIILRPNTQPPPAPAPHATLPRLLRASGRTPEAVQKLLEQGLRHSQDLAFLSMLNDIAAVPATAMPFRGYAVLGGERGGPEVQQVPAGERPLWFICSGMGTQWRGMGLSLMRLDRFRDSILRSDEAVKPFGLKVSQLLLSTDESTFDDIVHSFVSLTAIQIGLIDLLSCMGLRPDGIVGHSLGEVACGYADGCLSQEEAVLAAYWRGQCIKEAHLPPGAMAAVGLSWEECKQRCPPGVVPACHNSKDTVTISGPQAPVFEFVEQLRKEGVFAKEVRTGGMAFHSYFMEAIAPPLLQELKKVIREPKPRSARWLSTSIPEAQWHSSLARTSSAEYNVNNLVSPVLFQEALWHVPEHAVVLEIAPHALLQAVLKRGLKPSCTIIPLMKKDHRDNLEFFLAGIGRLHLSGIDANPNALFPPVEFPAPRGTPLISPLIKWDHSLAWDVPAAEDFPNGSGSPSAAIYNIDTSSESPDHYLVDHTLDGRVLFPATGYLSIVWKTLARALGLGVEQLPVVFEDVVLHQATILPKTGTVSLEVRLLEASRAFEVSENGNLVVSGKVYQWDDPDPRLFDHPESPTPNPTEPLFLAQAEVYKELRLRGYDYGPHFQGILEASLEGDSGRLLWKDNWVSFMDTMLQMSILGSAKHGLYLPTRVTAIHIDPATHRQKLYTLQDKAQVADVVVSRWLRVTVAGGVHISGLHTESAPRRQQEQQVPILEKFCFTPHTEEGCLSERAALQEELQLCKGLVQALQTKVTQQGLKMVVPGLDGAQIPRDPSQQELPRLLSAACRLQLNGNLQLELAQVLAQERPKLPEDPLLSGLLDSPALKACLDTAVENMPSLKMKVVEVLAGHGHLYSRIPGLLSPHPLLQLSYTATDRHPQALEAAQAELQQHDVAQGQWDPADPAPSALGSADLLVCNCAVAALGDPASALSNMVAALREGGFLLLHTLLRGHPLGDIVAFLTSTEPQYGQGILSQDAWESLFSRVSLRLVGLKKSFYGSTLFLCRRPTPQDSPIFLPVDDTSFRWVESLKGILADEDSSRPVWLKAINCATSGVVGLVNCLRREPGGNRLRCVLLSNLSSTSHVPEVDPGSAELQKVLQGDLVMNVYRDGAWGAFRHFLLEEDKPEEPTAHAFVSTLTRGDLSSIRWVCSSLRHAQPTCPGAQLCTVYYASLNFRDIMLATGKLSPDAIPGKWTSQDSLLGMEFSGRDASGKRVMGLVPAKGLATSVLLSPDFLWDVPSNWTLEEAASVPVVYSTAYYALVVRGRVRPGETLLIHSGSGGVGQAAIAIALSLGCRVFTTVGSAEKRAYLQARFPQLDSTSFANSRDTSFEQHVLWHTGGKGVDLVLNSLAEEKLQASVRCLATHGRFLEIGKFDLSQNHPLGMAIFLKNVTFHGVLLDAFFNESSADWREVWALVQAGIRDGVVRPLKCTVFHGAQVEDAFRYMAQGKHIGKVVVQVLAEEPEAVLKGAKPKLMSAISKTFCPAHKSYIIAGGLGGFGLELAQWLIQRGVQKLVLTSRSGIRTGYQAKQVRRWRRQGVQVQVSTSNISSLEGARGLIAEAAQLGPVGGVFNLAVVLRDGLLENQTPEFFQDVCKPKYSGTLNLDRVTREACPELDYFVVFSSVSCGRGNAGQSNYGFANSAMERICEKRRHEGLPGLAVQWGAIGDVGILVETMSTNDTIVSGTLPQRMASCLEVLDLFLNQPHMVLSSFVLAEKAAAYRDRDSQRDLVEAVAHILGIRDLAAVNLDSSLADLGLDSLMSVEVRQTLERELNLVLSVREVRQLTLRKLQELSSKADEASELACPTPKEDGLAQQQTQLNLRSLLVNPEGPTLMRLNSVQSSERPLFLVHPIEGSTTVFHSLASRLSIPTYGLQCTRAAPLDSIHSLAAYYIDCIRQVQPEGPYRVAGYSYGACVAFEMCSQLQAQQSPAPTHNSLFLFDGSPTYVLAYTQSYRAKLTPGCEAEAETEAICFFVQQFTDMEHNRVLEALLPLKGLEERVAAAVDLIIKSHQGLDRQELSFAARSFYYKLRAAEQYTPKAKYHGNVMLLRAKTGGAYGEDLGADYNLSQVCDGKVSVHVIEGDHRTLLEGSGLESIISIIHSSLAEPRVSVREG
Outline: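 Eight compound concentrations (0.01–30 μM) tested in pH 7.5 phosphate buffer with DTT; human full-length enzyme converted [3H]-acetyl-CoA plus malonyl-CoA, with NADPH, over 60 min at room temperature. Hydrophobic [3H]-palmitate detected by bead proximity scintillation imaging; control-normalised data fitted for IC50/pIC50.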

A2780 ovarian cells [2] = experiment: A2780 Ovarian Cell Proliferation Assay in Lipid Reduced Medium, without Palmitate; type: cell-based; conditions: Homo sapiens, A2780; lipid reduced medium, without palmitate, 96 h, MTT; read-out: Proliferation A2780 w/o Palmitate pIC50 (converted)
Outline: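 A2780 cells were seeded in 10% FCS medium and switched next day to 10% lipid-reduced serum without palmitate. Compounds at 0.01–30 μM were added with 0.2% DMSO, 0.2% fatty-acid-free BSA and 0.25% ethanol final. After 96 h, MTT absorbance at 544 nm was normalized to plate controls, and IC50/pIC50 came from a 4-parameter logistic fit.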

A2780 ovarian cells [3] = experiment: A2780 Ovarian Cell Proliferation Assay in Lipid Reduced Medium, with Palmitate (control); type: cell-based; conditions: Homo sapiens, A2780; lipid reduced medium, 25 μM palmitate, 96 h, MTT; read-out: Proliferation A2780 with Palmitate pIC50 (converted)
Outline: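 Read-out was MTT absorbance at 544 nm after 96 h at 37 °C. Cells grown overnight in RPMI1640/10% FCS were moved to 10% lipid-reduced serum with compound plus palmitate (final 25 μM, 0.2% fatty-acid-free BSA, 0.2% DMSO). IC50 came from least-squares curve fitting, expressed as −log(IC50).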

[4] = biological target: T2, FASN Keto-reductase Domain (Homo sapiens, UniProt P49327); experiment: Fatty Acid Synthase Keto-Reductase Domain (FASN KR) Inhibition; type: biochemical; conditions: mean where tested more than once; read-out: FASN K-R Domain pIC50 (converted)
T2 construct: 10 μL hFASN enzyme (full length, 300 ng, purified in house) and 360 μM NADPH; made in house
T2 sequence (P49327 whole entry, the tested form may be a part): as the sequence (P49327 whole entry) above
Outline: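 Keto-reductase activity followed as NADPH consumption (A340 drop between 0 and 20 min, room temperature) using in-house full-length hFASN, 360 μM NADPH and ethyl acetoacetate substrate (180 mM stock), pH 7.5 phosphate buffer.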

| Compound | IC50 [1] | inhibition at 10 µM [1] | IC50 (A2780 ovarian cells [2]) | IC50 (A2780 ovarian cells [3]) | IC50 [4] |
| --- | --- | --- | --- | --- | --- |
| Cc1ccc(C(=O)N2CCC(c3ccc(-c4cccc(F)c4)cc3)CC2)cc1NC(=O)c1ccc(NC(C)C)nc1 [Compound 230, N-(5-(4-(3′-fluoro-[1,1′-biphenyl]-4-yl)piperidine-1-carbonyl)-2-methylphenyl)-6-(isopropylamino)nicotinamide] | 363 nM | 79% | 692 nM | 2.51 µM | 525 nM |
| COc1cc(C(=O)Nc2cc(C(=O)N3CCC(c4ccc(-c5cnn(C)c5)cc4)CC3)ccc2C)cc(Cl)n1 [Compound 103, 2-Chloro-6-methoxy-N-(2-methyl-5-(4-(4-(1-methyl-1H-pyrazol-4-yl)phenyl)piperidine-1-carbonyl)phenyl)isonicotinamide] | 75.9 nM | 95% | 141 nM | 4.57 µM | 148 nM |
| Cc1ccc(C(=O)N2CC[C@H](c3ccc(-c4ccnn4C)cc3)[C@H](C)C2)cc1NC(=O)c1ccc(NC(C)C)nc1 (racemic) [Compound #76, (±)-6-(Isopropylamino)-N-(2-methyl-5-((3S,4S)-3-methyl-4-(4-(1-methyl-1H-pyrazol-5-yl)phenyl)piperidine-1-carbonyl)phenyl)nicotinamide] | 631 nM | 91% | 1050 nM | 2 µM | 1380 nM |
| Cc1ccc(C(=O)N2CCC(c3ccc(-c4cnn(C)c4)cc3)CC2)cc1NC(=O)c1ccc(NC2CCC2)nc1 [Compound 134, 6-(cyclobutylamino)-N-(2-methyl-5-(4-(4-(1-methyl-1H-pyrazol-4-yl)phenyl)piperidine-1-carbonyl)phenyl)nicotinamide] | 57.5 nM | 111% | ~38 nM | > 10 µM | 52.5 nM |
| Cc1ccc(C(=O)N2CCC(c3ccc4ccncc4c3)CC2)cc1NC(=O)c1ccc(Cl)nc1 [Compound 37, 6-chloro-N-(5-(4-(isoquinolin-7-yl)piperidine-1-carbonyl)-2-methylphenyl)nicotinamide] | 537 nM | 94% | 617 nM | 3.39 µM | 562 nM |
| Cc1ccc(C(=O)N2CCC(c3ccc(-c4cnn(C)c4)cc3)CC2)cc1NC(=O)c1ccc(F)cc1F [Compound 131, 2,4-difluoro-N-(2-methyl-5-(4-(4-(1-methyl-1H-pyrazol-4-yl)phenyl)piperidine-1-carbonyl)phenyl)benzamide] | 51.3 nM | 109% | 126 nM | > 6.17 µM | 107 nM |
| CC(C)Nc1ccc(C(=O)Nc2cc(C(=O)N3CCC(c4ccc(-c5cnn(C)c5)cc4)CC3)ccc2OCc2ccccc2)cn1 [Compound 271, N-(2-(benzyloxy)-5-(4-(4-(1-methyl-1H-pyrazol-4-yl)phenyl)piperidine-1-carbonyl)phenyl)-6-(isopropylamino)nicotinamide] | 100 nM | 101% | 490 nM | > 10 µM | 537 nM |
| Cc1ccc(C(=O)N2CCC(c3ncc(-c4cnn(C)c4)cn3)CC2)cc1NC(=O)c1ccc(NC(C)C)nc1 [Compound 258, 6-(isopropylamino)-N-(2-methyl-5-(4-(5-(1-methyl-1H-pyrazol-4-yl)pyrimidin-2-yl)piperidine-1-carbonyl)phenyl)nicotinamide] | 245 nM | 99% | 389 nM | > 10 µM | 1230 nM |
| COc1ccccc1C(=O)Nc1cc(C(=O)N2CCC(c3ccc(-c4cnn(C)c4)cc3)CC2)ccc1C [Compound 105, 2-methoxy-N-(2-methyl-5-(4-(4-(1-methyl-1H-pyrazol-4-yl)phenyl)piperidine-1-carbonyl)phenyl)benzamide] | 309 nM | 86% | 955 nM | 3.02 µM | 617 nM |
| Cc1ccc(C(=O)N2CCC(c3ccc(-c4cnn(C)c4)cc3)CC2)cc1NC(=O)C1CCN(C)CC1 [Compound 169, 1-methyl-N-(2-methyl-5-(4-(4-(1-methyl-1H-pyrazol-4-yl)phenyl)piperidine-1-carbonyl)phenyl)piperidine-4-carboxamide] | 70.8 nM | 106% | 77.6 nM | > 10 µM | 191 nM |
| COc1ccc(C(=O)Nc2cc(C(=O)N3CCC(c4ccc(-c5cnn(C)c5)cc4)CC3)ccc2C)cc1Cl [Compound 155, 3-chloro-4-methoxy-N-(2-methyl-5-(4-(4-(1-methyl-1H-pyrazol-4-yl)phenyl)piperidine-1-carbonyl)phenyl)benzamide] | 47.9 nM | 98% | 85.1 nM | > 10 µM | 93.3 nM |
| Cc1ccc(C(=O)N2CCC(c3ccc4c(c3)NC(=O)CC4)CC2)cc1NC(=O)c1ccc(NC(C)C)nc1 [Compound 35, 6-(isopropylamino)-N-(2-methyl-5-(4-(2-oxo-1,2,3,4-tetrahydroquinolin-7-yl)piperidine-1-carbonyl)phenyl)nicotinamide] | 437 nM | 99% | 676 nM | ~8.91 µM | 794 nM |

Now those with a lower IC50 [1], led by results:

| IC50 [1] | inhibition at 10 µM [1] | IC50 (A2780 ovarian cells [2]) | IC50 (A2780 ovarian cells [3]) | IC50 [4] | Compound |
| --- | --- | --- | --- | --- | --- |
| 38.9 nM | 111% | 49 nM | 2.24 µM | 22.9 nM | Cc1ccc(C(=O)N2CC(c3ccc(-c4cccc5ncccc45)cc3)C2)cc1NC(=O)c1ccc(NC(C)C)nc1 [Compound 12, 6-(isopropylamino)-N-(2-methyl-5-(3-(4-(quinolin-5-yl)phenyl)azetidine-1-carbonyl)phenyl)nicotinamide] |
| 32.4 nM | 105% | ~2290 nM | > 10 µM | 40.7 nM | Cc1ccc(C(=O)N2CC(c3ccc(-c4ccsc4)cc3)C2)cc1NC(=O)c1ccc(NC(C)C)nc1 [Compound 26, 6-(isopropylamino)-N-(2-methyl-5-(3-(4-(thiophen-3-yl)phenyl)azetidine-1-carbonyl)phenyl)nicotinamide] |
| ~32.4 nM | 120% | 110 nM | 4.27 µM | 100 nM | Cc1ccc(C(=O)N2CC[C@H](c3ccc(-c4ccnn4C)cc3)[C@@H](C)C2)cc1NC(=O)c1ccc(NC(C)C)nc1 (racemic) [Compound #81, (±)-6-(isopropylamino)-N-(2-methyl-5-((3R,4S)-3-methyl-4-(4-(1-methyl-1H-pyrazol-5-yl)phenyl)piperidine-1-carbonyl)phenyl)nicotinamide] |
| 31.6 nM | 113% | 18.6 nM | > 10 µM | 74.1 nM | CCCCN1CCC(C(=O)Nc2cc(C(=O)N3CCC(c4ccc(-c5cnn(C)c5)cc4)CC3)ccc2C)CC1 [Compound 211, 1-butyl-N-(2-methyl-5-(4-(4-(1-methyl-1H-pyrazol-4-yl)phenyl)piperidine-1-carbonyl)phenyl)piperidine-4-carboxamide] |
| 22.9 nM | 98% | 95.5 nM | > 10 µM | 85.1 nM | Cc1ccc(C(=O)N2CC(c3ccc(-c4cnn(C)c4)cc3)C2)cc1NC(=O)c1ccccc1F [Compound 82, 2-fluoro-N-(2-methyl-5-(3-(4-(1-methyl-1H-pyrazol-4-yl)phenyl)azetidine-1-carbonyl)phenyl)benzamide] |
| 20.9 nM | 99% | 56.2 nM | > 10 µM | 28.8 nM | CC(C)Nc1ccc(C(=O)Nc2cc(C(=O)N3CC(c4ccc(-c5cnn(C)c5)cc4)C3)ccc2Cl)cn1 [Compound 65, N-(2-chloro-5-(3-(4-(1-methyl-1H-pyrazol-4-yl)phenyl)azetidine-1-carbonyl)phenyl)-6-(isopropylamino)nicotinamide] |
| 17.4 nM | 107% | 61.7 nM | 2.19 µM | 45.7 nM | CC(C)Nc1ccc(C(=O)Nc2cc(C(=O)N3CC(c4ccc(-c5ccncc5)cc4)C3)ccc2Cl)cn1 [Compound #74, N-(2-chloro-5-(3-(4-(pyridin-4-yl)phenyl)azetidine-1-carbonyl)phenyl)-6-(isopropylamino)nicotinamide] |
| 14.8 nM | 110% | ~33.9 nM | 1.7 µM | 25.1 nM | Cc1ccc(C(=O)N2CCC(c3ccc(-c4cnoc4)cc3)CC2)cc1NC(=O)c1ccc(NC(C)C)nc1 [Compound 51, 6-(isopropylamino)-N-(5-(4-(4-(isoxazol-4-yl)phenyl)piperidine-1-carbonyl)-2-methylphenyl)nicotinamide] |
